Laboratory results taken from patent US8921406B2, “5-ring heteroaromatic compounds and their use as binding partners for 5-HT5 receptors” (AbbVie Deutschland GmbH & Co. KG, priority 2005, dated 2014).
Counter-ions that a name gives are not always drawn.

molecular target: T1, h5-HT5A receptor (Homo sapiens, UniProt P47898); experiment: h5-HT5A-[3H]5-CT binding assay; details: membranes of HEK293 cells expressing h5-HT5A; 2.5 nM [3H]5-CT; read-out: Binding affinity 5-HT5A (Ki)
T1 construct: expressed in transfected cells
Experimental: 1. h5-HT5A-[^3H]5-CT Binding Assay
Membranes of HEK293 cells which permanently express the h5-HT5A receptor gene were incubated in 100 mM tris-HCl buffer (pH 7.7) containing 1 mM EDTA, in the presence of 2.5 nM [^3H]5-CT (total volume 600 μL). The total binding is defined as the binding that is observed when the membranes are incubated in the presence of only the radioligand. The inhibition induced by the compound is determined by incubation of cell membranes in the presence of the radioligand and various concentrations of the compound of interest. Nonspecific binding is defined as the [^3H]5-CT binding obtained by incubation of the membranes, the same as for the total binding, but in the presence of 10 μM methiothepine. Following incubation for 75 min at 30° C., the membrane suspension was filtered through a GF/B-Filter coated with 0.03% PEI, using a Skatron® harvesting system. The residual radioactivity in the filter was quantified by liquid scintillation counting.
Various concentrations of the test substances were used in both assays, and the Ki or IC50 values were determined.

T1 sequence (P47898 whole entry): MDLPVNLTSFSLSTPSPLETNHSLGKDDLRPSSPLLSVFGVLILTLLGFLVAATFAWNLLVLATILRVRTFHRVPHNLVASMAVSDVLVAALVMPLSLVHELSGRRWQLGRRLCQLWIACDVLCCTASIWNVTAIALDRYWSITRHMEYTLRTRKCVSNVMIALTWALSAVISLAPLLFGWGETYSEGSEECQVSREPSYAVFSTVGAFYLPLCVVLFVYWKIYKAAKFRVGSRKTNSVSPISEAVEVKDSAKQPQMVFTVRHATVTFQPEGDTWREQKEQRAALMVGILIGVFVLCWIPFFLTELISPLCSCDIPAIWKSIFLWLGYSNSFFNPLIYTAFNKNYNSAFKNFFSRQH

With `COc1ccccc1Cn1cc(-c2cccc(N)c2)nc1N` [Example 51, 4-(3-Aminophenyl)-1-(2-methoxybenzyl)-1H-imidazole-2-ylamine] as the molecule, how does the Ki read?
Its Ki is less than 600 nM.

With `COc1ccccc1Cn1cc(-c2ccccc2)nc1NC(C)=O` [Example 9, N-[1-(2-Methoxybenzyl)-4-phenyl-1H-imidazole-2-yl]acetamide] as the molecule, how does the Ki read?
The Ki was greater than 600 nM.

`COc1ccccc1Cn1cc(-c2ccc(C#N)s2)nc1N` [Example 50, 5-[2-Amino-1-(2-methoxybenzyl)-1H-imidazole-4-yl]thiophene-2-carbonitrile] was tested. Which Ki did it give?
The Ki was less than 600 nM.

Which Ki does the source give for `COc1ccccc1Cn1cc(-c2ccsc2)nc1N` [Example 20, 1-(2-Methoxybenzyl)-4-thiophene-3-yl-1H-imidazole-2-ylamine hydrochloride] here?
Its Ki is less than 600 nM.

How did the Ki turn out when `COc1ccccc1Cc1cn(-c2ccccc2)nc1N` [Example 4, 4-(2-Methoxybenzyl)-1-phenyl-1H-pyrazole-3-ylamine] was run?
Its Ki is greater than 600 nM.

With `COc1ccccc1Cn1cc(-c2ccc(C(C)C)cc2)nc1N` [Example 39, 4-(4-Isopropylphenyl)-1-(2-methoxybenzyl)-1H-imidazole-2-ylamine] as the molecule, how does the Ki read?
Its Ki is less than 600 nM.

For `COc1ccccc1Cn1cc(-c2ccc(Br)cc2)nc1N` [Example 1, 4-(4-Bromophenyl)-1-(2-methoxybenzyl)-1H-imidazole-2-ylamine], which Ki is on record?
Its Ki is less than 600 nM.

With `COc1ccc(-n2cc(Cc3ccccc3OC)c(N)n2)cc1` [Example 6, 4-(2-Methoxybenzyl)-1-(4-methoxyphenyl)-1H-pyrazole-3-ylamine] as the molecule, how does the Ki read?
Its Ki is greater than 600 nM.

For `COc1ccccc1Cn1cc(-c2ccc([N+](=O)[O-])cc2)nc1N` [Example 2, 1-(2-Methoxybenzyl)-4-(4-nitrophenyl)-1H-imidazole-2-ylamine], which Ki is on record?
The Ki was less than 600 nM.

For `COc1ccccc1Cn1c(N)nc(-c2ccccc2)c1C` [Example 14, 1-(2-Methoxybenzyl)-5-methyl-4-phenyl-1H-imidazole-2-ylamine], which Ki is on record?
The Ki was less than 600 nM.

For `COc1ccccc1Cn1cc(C(C)(C)C)nc1N` [Example 11, 4-tert-Butyl-1-(2-methoxybenzyl)-1H-imidazole-2-ylamine], which Ki is on record?
Its Ki is greater than 600 nM.

Which Ki does the source give for `COc1ccccc1Cc1cn(-c2ccc(F)cc2)nc1N` [Example 7, 1-(4-Fluorophenyl)-4-(2-methoxybenzyl)-1H-pyrazole-3-ylamine] here?
The Ki was greater than 600 nM.

`COc1cccc(OC)c1Cn1cc(-c2ccc(C)c(C)c2)nc1N` [Example 40, 1-(2,6-Dimethoxybenzyl)-4-(3,4-dimethylphenyl)-1H-imidazole-2-ylamine hydrochloride] was tested. Which Ki did it give?
Its Ki is less than 600 nM.

With `COc1ccccc1Cn1cc(-c2cccc(NS(=O)(=O)c3ccc(C(C)C)cc3)c2)nc1N` [Example 55, N-{3-[2-Amino-1-(2-methoxybenzyl)-1H-imidazole-4-yl]phenyl}-4-isopropylbenzenesulfonamide] as the molecule, how does the Ki read?
Its Ki is less than 600 nM.

Which Ki does the source give for `COc1ccccc1Cn1cc(-c2ccc(N)cc2)nc1N` [Example 53, 4-(4-Aminophenyl)-1-(2-methoxybenzyl)-1H-imidazole-2-ylamine hydrochloride] here?
The Ki was less than 600 nM.

`COc1ccccc1Cn1cc(-c2cccs2)nc1N` [Example 13, 1-(2-Methoxybenzyl)-4-thiophene-2-yl-1H-imidazole-2-ylamine] was tested. Which Ki did it give?
The Ki was less than 600 nM.

`COc1ccccc1Cc1nc(-c2ccccc2)[nH]c1N` [Example 3, 5-(2-Methoxybenzyl)-2-phenyl-3H-imidazole-4-ylamine] was tested. Which Ki did it give?
The Ki was less than 600 nM.

For `COc1ccccc1Cn1cc(-c2cc3ccccc3o2)nc1N` [Example 42, 4-Benzofuran-2-yl-1-(2-methoxybenzyl)-1H-imidazole-2-ylamine], which Ki is on record?
Its Ki is less than 600 nM.

Which Ki does the source give for `COc1ccccc1Cn1cc(-c2cccc(NS(C)(=O)=O)c2)nc1N` [Example 57, N-{3-[2-Amino-1-(2-methoxybenzyl)-1H-imidazole-4-yl]phenyl}methanesulfonamide] here?
The Ki was less than 600 nM.
